Test system: gut microbiota
Assay: Gut (cecal) microbiota analysis by 16S rRNA sequencing
Format: in vivo, mice
Conditions: for amount of OTUs vs control: p < 0.001; for gut community richness (Sobs index) vs control: p < 0.01
Procedure: Fresh cecal samples from 24 (n = 6 per group) mice were collected at 1, 8 and 30 h after oral administration of 500 mg·kg^−1 MHO7 meanwhile control group was collected at 8 h after oral the same volume corn oil, respectively. All of the cecal samples were collected in sterile environments and containers, snap-frozen in liquid nitrogen, and then stored at −80 °C.
Microbial DNA was extracted from 24 cecal samples using the E.Z.N.A.® soil DNA Kit (Omega Bio-tek, Norcross, GA, USA) according to manufacturer’s protocols. The final DNA concentration and purification were determined by NanoDrop 2000 UV-vis spectrophotometer (Thermo Scientific, Wilmington, DE, USA), and DNA quality was checked by 1% agarose gel electrophoresis. The V3-V4 hypervariable regions of the bacteria 16S rRNA gene were amplified with primers 338F (5’- […]-3’) and 806R (5’-[…]-3’) by thermocycler PCR system (GeneAmp 9700, ABI, Foster City, CA, USA). The PCR reactions were conducted using the following program: 3 min of denaturation at 95 °C; 27 cycles of 30 s at 95 °C, 30 s for annealing at 55 °C, and 45 s for elongation at 72 °C; and a final extension at 72 °C for 10 min. PCR reactions were performed in triplicate 20 μL mixture containing 4 μL of 5 × FastPfu Buffer, 2 μL of 2.5 mM·L^−1 dNTPs, 0.8 μL of each primer (5 μM·L^−1), 0.4 μL of FastPfu Polymerase, and 10 ng of template DNA. The resulted PCR products were extracted from a 2% agarose gel and further purified using the AxyPrep DNA Gel Extraction Kit (Axygen Biosciences, Union City, CA, USA) and quantified using QuantiFluor ™ -ST (Promega, Madison, […], USA) according to the manufacturer’s protocol.
Purified amplicons were pooled in equimolar and paired-end sequenced (2 × 300) on an Illumina MiSeq platform (Illumina, San Diego, CA, USA) according to the standard protocols by Majorbio Bio-Pharm Technology Co. Ltd. (Shanghai, China).
Raw fastq files were quality-filtered by Trimmomatic and merged by FLASH according to the following criteria: (i) The reads were truncated at any site receiving an average quality score < 20 over a 50 bp sliding window. (ii) Sequences whose overlap was longer than 10 bp were merged according to their overlap with mismatch no more than 2 bp. (iii) Sequences of each sample were separated according to barcodes (exactly matching) and Primers (allowing 2 nucleotide mismatching), and reads containing ambiguous bases were removed. Operational taxonomic units (OTUs) were clustered using UPARSE (version 7.1, http://drive5.com/uparse/) at a 97% similarity level with a novel “greedy” algorithm that performs chimera filtering and OTU clustering simultaneously. The taxonomy of each 16S rRNA gene sequence was analyzed by RDP Classifier algorithm (http://rdp.cme.msu.edu/) against the Silva (SSU123) 16S rRNA database using confidence threshold of 70%.

[1] = MHO7-1h group, cecal, oral 500 mg·kg^−1
[2] = MHO7-8h group, cecal, oral 500 mg·kg^−1
[3] = MHO7-30h group, cecal, oral 500 mg·kg^−1

CC(C)=C/C=C/[C@H](C)[C@H]1CC[C@]2(C)C[C@@H]3C(C)=CC(=O)[C@H]3/C(C=O)=C\C[C@@H]12 [MHO7, 6-epi-ophiobolin G]
richness, diversity, OTU number of gut microbiome vs control (MHO7-1 h group): no significant difference
Relative abundance, class Bacilli [1]: 10.08±7.69%
Relative abundance, class Clostridia [1]: 38.58 ± 11.1%
Relative abundance, class Mollicutes [1]: 0.46±0.25%
Relative abundance, class Verrucomicrobiae [1]: 0.0019±0.002%
Relative abundance, family Bacteroidales_S24-7_group [1]: 33.99±6.67%
Relative abundance, family Lachnospiraceae [1]: 27.23±10.42%
Relative abundance, family Lactobacillaceae [1]: 10.05±7.69%
Relative abundance, family Rikenellaceae [1]: 7.09±0.86%
Relative abundance, family Ruminococcaceae [1]: 10.04±1.97%
Relative abundance, family Verrucomicrobiaceae [1]: 0.0019±0.0021%
Relative abundance, genus Anaeroplasma [1]: 0.12±0.11%
Relative abundance, genus Coprococcus_1 [1]: 0.19±0.10%
Relative abundance, genus Family_XIII_AD3011_group [1]: 0.067±0.041%
Relative abundance, genus Lachnoclostridium [1]: 0.51±0.21%
Relative abundance, genus Lactobacillus [1]: 10.05±7.69%
Relative abundance, genus Papillibacter [1]: 0.0062±0.0066%
Relative abundance, genus Peptococcus [1]: 0.010±0.0061%
Relative abundance, genus Prevotellaceae_NK3B31_group [1]: 0.46±0.31%
Relative abundance, genus Prevotellaceae_UCG-001 [1]: 0.78±0.51%
Relative abundance, genus Rikenellaceae_RC9_gut_group [1]: 2.82±0.76%
Relative abundance, genus Ruminiclostridium [1]: 0.78±0.59%
Relative abundance, genus Ruminiclostridium_5 [1]: 0.34±0.14%
Relative abundance, genus Ruminiclostridium_9 [1]: 0.76±0.29%
Relative abundance, genus Ruminococcaceae_NK4A214_group [1]: 0.076±0.024%
Relative abundance, genus Ruminococcaceae_UCG-009 [1]: 0.066±0.050%
Relative abundance, genus Ruminococcaceae_UCG-010 [1]: 0.12±0.046%
Relative abundance, genus Ruminococcaceae_UCG-014 [1]: 2.73±0.93%
Relative abundance, genus Ruminococcus_1 [1]: 1.53±1.04%
Relative abundance, genus Streptococcus [1]: 0.023±0.0050%
Relative abundance, genus [Eubacterium]_coprostanoligenes_group [1]: 0.13±0.12%
Relative abundance, genus [Eubacterium]_ventriosum_group [1]: 0.13±0.089%
Relative abundance, genus g__norank_f__Bacteroidales_S24-7_group [1]: 33.99±6.67%
Relative abundance, genus g__norank_f__Christensenellaceae [1]: 0.034±0.014%
Relative abundance, genus g__norank_f__Lachnospiraceae [1]: 6.456±2.68%
Relative abundance, genus g__norank_f__Ruminococcaceae [1]: 0.31±0.22%
Relative abundance, genus norank_o__Mollicutes_RF9 [1]: 0.34±0.17%
Relative abundance, order Anaeroplasmatales [1]: 0.12±0.11%
Relative abundance, order Bacillales [1]: 0.0000%
Relative abundance, order Clostridiales [1]: 38.54±11.15%
Relative abundance, order Lactobacillales [1]: 10.10±7.65%
Relative abundance, order Mollicutes_RF9 [1]: 0.33±0.16%
Relative abundance, order Verrucomicrobiales [1]: 0.0022±0.0027%
Relative abundance, phylum Deferribacteres [1]: 0.14±0.12%
Relative abundance, phylum Proteobacteria [1]: 0.18±0.045%
Relative abundance, phylum Saccharibacteria [1]: 0.47±0.28%
Relative abundance, phylum Tenericutes [1]: 0.46±0.25%
gut community diversity (Shannon index) vs control (MHO7-8 h group, OTU level, p < 0.05): decreased significantly
amount of OTUs vs control (MHO7-8 h group): remarkable reduction
gut community richness (Sobs index) vs control (MHO7-8 h group): remarkable reduction
Relative abundance, class Bacilli [2]: 11.49±12.09%
Relative abundance, class Clostridia [2]: 28.98 ± 20.11%
Relative abundance, class Mollicutes [2]: 0.0075±0.0048%
Relative abundance, class Verrucomicrobiae [2]: 0.80±1.18%
Relative abundance, family Bacteroidales_S24-7_group [2]: 33.65±5.47%
Relative abundance, family Lachnospiraceae [2]: 21.66±15.88%
Relative abundance, family Lactobacillaceae [2]: 11.34±12.11%
Relative abundance, family Rikenellaceae [2]: 3.66±2.13%
Relative abundance, family Ruminococcaceae [2]: 6.20±4.57%
Relative abundance, family Verrucomicrobiaceae [2]: 0.80±1.18%
Relative abundance, genus Coprococcus_1 [2]: 0.21±0.17%
Relative abundance, genus Family_XIII_AD3011_group [2]: 0.0069±0.0077%
Relative abundance, genus Lachnoclostridium [2]: 0.81±0.61%
Relative abundance, genus Lactobacillus [2]: 11.34±12.11%
Relative abundance, genus Papillibacter [2]: 0.0025±0.0061%
Relative abundance, genus Peptococcus [2]: 0.0050±0.010%
Relative abundance, genus Prevotellaceae_NK3B31_group [2]: 2.54±2.44%
Relative abundance, genus Prevotellaceae_UCG-001 [2]: 4.09±3.41%
Relative abundance, genus Rikenellaceae_RC9_gut_group [2]: 0.088±0.089%
Relative abundance, genus Ruminiclostridium [2]: 0.36±0.31%
Relative abundance, genus Ruminiclostridium_5 [2]: 0.21±0.21%
Relative abundance, genus Ruminiclostridium_9 [2]: 0.60±0.59%
Relative abundance, genus Ruminococcaceae_NK4A214_group [2]: 0.023±0.021%
Relative abundance, genus Ruminococcaceae_UCG-009 [2]: 0.063±0.072%
Relative abundance, genus Ruminococcaceae_UCG-010 [2]: 0.036±0.042%
Relative abundance, genus Ruminococcaceae_UCG-014 [2]: 0.19±0.25%
Relative abundance, genus Ruminococcus_1 [2]: 0.38±0.32%
Relative abundance, genus Staphylococcus [2]: 0.066±0.060%
Relative abundance, genus Streptococcus [2]: 0.029±0.016%
Relative abundance, genus Sutterella [2]: 0.0069±0.010%
Relative abundance, genus [Eubacterium]_coprostanoligenes_group [2]: 0.22±0.23%
Relative abundance, genus [Eubacterium]_ventriosum_group [2]: 0.012±0.020%
Relative abundance, genus g__norank_f__Bacteroidales_S24-7_group [2]: 33.65±5.47%
Relative abundance, genus g__norank_f__Christensenellaceae [2]: 0.011±0.0079%
Relative abundance, genus g__norank_f__Lachnospiraceae [2]: 7.54±4.66%
Relative abundance, genus g__norank_f__Ruminococcaceae [2]: 0.31±0.26%
Relative abundance, genus norank_o__Mollicutes_RF9 [2]: 0.0075±0.0047%
Relative abundance, order Anaeroplasmatales [2]: 0.00028±0.00068%
Relative abundance, order Bacillales [2]: 0.071±0.067%
Relative abundance, order Clostridiales [2]: 28.89±20.03%
Relative abundance, order Lactobacillales [2]: 11.34±12.02%
Relative abundance, order Mollicutes_RF9 [2]: 0.0057±0.0040%
Relative abundance, order Verrucomicrobiales [2]: 0.78±1.15%
Relative abundance, phylum Deferribacteres [2]: 0.0044±0.0050%
Relative abundance, phylum Proteobacteria [2]: 2.05±1.47%
Relative abundance, phylum Saccharibacteria [2]: 0.35±0.61%
Relative abundance, phylum Tenericutes [2]: 0.0075±0.0047%
amount of OTUs vs control (MHO7-30 h group): remarkable reduction
gut community richness (Sobs index) vs control (MHO7-30 h group): remarkable reduction
Relative abundance, class Bacilli [3]: 3.25±3.05%
Relative abundance, class Clostridia [3]: 47.82 ± 20.66%
Relative abundance, class Mollicutes [3]: 0.0012±0.0031%
Relative abundance, class Verrucomicrobiae [3]: 2.51±3.67%
Relative abundance, family Bacteroidales_S24-7_group [3]: 19.34±6.97%
Relative abundance, family Lachnospiraceae [3]: 42.58±19.32%
Relative abundance, family Lactobacillaceae [3]: 3.21±2.99%
Relative abundance, family Rikenellaceae [3]: 3.19±2.16%
Relative abundance, family Ruminococcaceae [3]: 4.13±1.97%
Relative abundance, family Verrucomicrobiaceae [3]: 2.51±3.67%
Relative abundance, genus Coprococcus_1 [3]: 0.11±0.068%
Relative abundance, genus Family_XIII_AD3011_group [3]: 0.021±0.014%
Relative abundance, genus Lachnoclostridium [3]: 2.42±2.02%
Relative abundance, genus Lactobacillus [3]: 3.21±2.99%
Relative abundance, genus Papillibacter [3]: 0.00062±0.0015%
Relative abundance, genus Peptococcus [3]: 0.0050±0.0056%
Relative abundance, genus Prevotellaceae_NK3B31_group [3]: 0.14±0.19%
Relative abundance, genus Prevotellaceae_UCG-001 [3]: 1.07±1.13%
Relative abundance, genus Rikenellaceae_RC9_gut_group [3]: 0.042±0.084%
Relative abundance, genus Ruminiclostridium [3]: 0.079±0.076%
Relative abundance, genus Ruminiclostridium_5 [3]: 0.27±0.23%
Relative abundance, genus Ruminiclostridium_9 [3]: 0.41±0.20%
Relative abundance, genus Ruminococcaceae_NK4A214_group [3]: 0.020±0.023%
Relative abundance, genus Ruminococcaceae_UCG-009 [3]: 0.012±0.015%
Relative abundance, genus Ruminococcaceae_UCG-010 [3]: 0.0062±0.0061%
Relative abundance, genus Ruminococcaceae_UCG-014 [3]: 0.022±0.030%
Relative abundance, genus Ruminococcus_1 [3]: 0.071±0.15%
Relative abundance, genus Streptococcus [3]: 0.0025±0.0031%
Relative abundance, genus Sutterella [3]: 0.090±0.090%
Relative abundance, genus [Eubacterium]_coprostanoligenes_group [3]: 0.28±0.50%
Relative abundance, genus [Eubacterium]_ventriosum_group [3]: 0.022±0.041%
Relative abundance, genus g__norank_f__Bacteroidales_S24-7_group [3]: 19.34±6.97%
Relative abundance, genus g__norank_f__Christensenellaceae [3]: 0.0069±0.0087%
Relative abundance, genus g__norank_f__Lachnospiraceae [3]: 19.81±11.07%
Relative abundance, genus g__norank_f__Ruminococcaceae [3]: 0.16±0.13%
Relative abundance, genus norank_o__Mollicutes_RF9 [3]: 0.0012±0.0031%
Relative abundance, order Anaeroplasmatales [3]: 0.00000%
Relative abundance, order Bacillales [3]: 0.00034±0.00084%
Relative abundance, order Clostridiales [3]: 47.86±20.61%
Relative abundance, order Lactobacillales [3]: 3.26±3.04%
Relative abundance, order Mollicutes_RF9 [3]: 0.0014±0.0025%
Relative abundance, order Verrucomicrobiales [3]: 2.52±3.65%
Relative abundance, phylum Deferribacteres [3]: 0.25±0.23%
Relative abundance, phylum Proteobacteria [3]: 1.34±1.58%
Relative abundance, phylum Saccharibacteria [3]: 0.0069±0.0055%
Relative abundance, phylum Tenericutes [3]: 0.0013±0.0031%
abundance of dominant phyla Firmicutes and Bacteroidetes (at 1, 8 or 30 h after oral administration): no significant differences

Source: article PMC6950057, “Toxicity, Pharmacokinetics, and Gut Microbiome of Oral Administration of Sesterterpene MHO7 Derived from a Marine Fungus” (Marine Drugs, 2019)
